Laboratory results as given in ChEMBL document CHEMBL3885881, “DrugMatrix”.

Organism: Rattus norvegicus
Assay: DrugMatrix - Regimen: Daily Repeat
Assay type: toxicity, organism-based, Sprague-Dawley
Set-up: regimen Daily Repeat, gender Male, age 6-8 weeks
Settings: in vivo, po, route oral GAVAGE, vehicle .5 % CMC; for ABSOLUTE BASOPHIL / ABSOLUTE EOSINOPHIL / ABSOLUTE LYMPHOCYTE / ABSOLUTE MONOCYTE / ABSOLUTE SEGMENTED NEUTROPHIL / BASOPHIL / EOSINOPHIL / ERYTHROCYTE COUNT / HEMATOCRIT / HEMOGLOBIN / LEUKOCYTE COUNT / LYMPHOCYTE / MEAN CORPUSCULAR HEMOGLOBIN / MEAN CORPUSCULAR HEMOGLOBIN CONCENTRATION / MEAN CORPUSCULAR VOLUME / MONOCYTE / NEUTROPHIL / NUCLEATED RED BLOOD CELLS / PLATELET COUNT: tissue Blood; for ALANINE AMINOTRANSFERASE / ALBUMIN / ALKALINE PHOSPHATASE / ASPARTATE AMINOTRANSFERASE / BLOOD UREA NITROGEN / CARBON DIOXIDE / CHLORIDE / CHOLESTEROL / CREATINE PHOSPHOKINASE / CREATININE / GLUCOSE / LACTATE DEHYDROGENASE / LIPASE / PHOSPHORUS / POTASSIUM / SODIUM / TOTAL BILIRUBIN / TOTAL PROTEIN / URIC ACID: tissue Plasma
[1] = 0 mg/kg, 72 h, dose level Control, time 3 day
[2] = 0 mg/kg, 120 h, dose level Control, time 5 day
[3] = 3 mg/kg, 72 h, dose level Low, time 3 day

SMILES: O=c1[nH]cc(F)c(=O)[nH]1 [FLUOROURACIL]
- ABSOLUTE BASOPHIL [1]: 0 CELLS/uL
- ABSOLUTE EOSINOPHIL [1]: 130.33 CELLS/uL
- ABSOLUTE LYMPHOCYTE [1]: 10030.67 CELLS/uL
- ABSOLUTE MONOCYTE [1]: 41 CELLS/uL
- ABSOLUTE SEGMENTED NEUTROPHIL [1]: 1298 CELLS/uL
- BASOPHIL [1]: 0%
- EOSINOPHIL [1]: 1%
- ERYTHROCYTE COUNT [1]: 5.22 x10E6/uL
- HEMATOCRIT [1]: 33.53%
- HEMOGLOBIN [1]: 12.73 G/DL
- LEUKOCYTE COUNT [1]: 11.5 x10E3/uL
- LYMPHOCYTE [1]: 87.67%
- MEAN CORPUSCULAR HEMOGLOBIN [1]: 24.45 pg
- MEAN CORPUSCULAR HEMOGLOBIN CONCENTRATION [1]: 37.97 G/DL
- MEAN CORPUSCULAR VOLUME [1]: 64.33 fL
- MONOCYTE [1]: 0.33%
- NEUTROPHIL [1]: 11%
- NUCLEATED RED BLOOD CELLS [1]: 0 /100WBC
- PLATELET COUNT [1]: 1310.5 x10E3/uL
- ALANINE AMINOTRANSFERASE [1]: 52 u/L
- ALBUMIN [1]: 4.22 G/DL
- ALKALINE PHOSPHATASE [1]: 340.17 u/L
- ASPARTATE AMINOTRANSFERASE [1]: 87.5 u/L
- BLOOD UREA NITROGEN [1]: 15.17 mg/dL
- CARBON DIOXIDE [1]: 25.5 mmol/L
- CHLORIDE [1]: 101.83 MEQ/L
- CHOLESTEROL [1]: 68.17 mg/dL
- CREATINE PHOSPHOKINASE [1]: 379.67 u/L
- CREATININE [1]: 0.17 mg/dL
- GLUCOSE [1]: 181.67 mg/dL
- LACTATE DEHYDROGENASE [1]: 256.17 u/L
- LIPASE [1]: 8 u/L
- PHOSPHORUS [1]: 12.1 mg/dL
- POTASSIUM [1]: 5.88 MEQ/L
- SODIUM [1]: 143.67 MEQ/L
- TOTAL BILIRUBIN [1]: 0.18 mg/dL
- TOTAL PROTEIN [1]: 5.92 G/DL
- URIC ACID [1]: 1.7 mg/dL
- ABSOLUTE BASOPHIL [2]: 0 CELLS/uL
- ABSOLUTE EOSINOPHIL [2]: 31 CELLS/uL
- ABSOLUTE LYMPHOCYTE [2]: 9599.17 CELLS/uL
- ABSOLUTE MONOCYTE [2]: 52.83 CELLS/uL
- ABSOLUTE SEGMENTED NEUTROPHIL [2]: 1050.33 CELLS/uL
- BASOPHIL [2]: 0%
- EOSINOPHIL [2]: 0.33%
- ERYTHROCYTE COUNT [2]: 5.53 x10E6/uL
- HEMATOCRIT [2]: 35.8%
- HEMOGLOBIN [2]: 13.53 G/DL
- LEUKOCYTE COUNT [2]: 10.73 x10E3/uL
- LYMPHOCYTE [2]: 89%
- MEAN CORPUSCULAR HEMOGLOBIN [2]: 24.47 pg
- MEAN CORPUSCULAR HEMOGLOBIN CONCENTRATION [2]: 37.82 G/DL
- MEAN CORPUSCULAR VOLUME [2]: 64.7 fL
- MONOCYTE [2]: 0.5%
- NEUTROPHIL [2]: 10.17%
- NUCLEATED RED BLOOD CELLS [2]: 0 /100WBC
- PLATELET COUNT [2]: 1028.5 x10E3/uL
- ALANINE AMINOTRANSFERASE [2]: 45.33 u/L
- ALBUMIN [2]: 4.33 G/DL
- ALKALINE PHOSPHATASE [2]: 351.83 u/L
- ASPARTATE AMINOTRANSFERASE [2]: 73.5 u/L
- BLOOD UREA NITROGEN [2]: 17.83 mg/dL
- CARBON DIOXIDE [2]: 24.67 mmol/L
- CHLORIDE [2]: 100 MEQ/L
- CHOLESTEROL [2]: 67 mg/dL
- CREATINE PHOSPHOKINASE [2]: 284 u/L
- CREATININE [2]: 0.2 mg/dL
- GLUCOSE [2]: 152.33 mg/dL
- LACTATE DEHYDROGENASE [2]: 108.67 u/L
- LIPASE [2]: 8.17 u/L
- PHOSPHORUS [2]: 11.17 mg/dL
- POTASSIUM [2]: 6.14 MEQ/L
- SODIUM [2]: 144.68 MEQ/L
- TOTAL BILIRUBIN [2]: 0.22 mg/dL
- TOTAL PROTEIN [2]: 6.08 G/DL
- URIC ACID [2]: 1.27 mg/dL
- ABSOLUTE BASOPHIL [3]: 0 CELLS/uL
- ABSOLUTE EOSINOPHIL [3]: 34 CELLS/uL
- ABSOLUTE LYMPHOCYTE [3]: 9566.33 CELLS/uL
- ABSOLUTE MONOCYTE [3]: 34 CELLS/uL
- ABSOLUTE SEGMENTED NEUTROPHIL [3]: 1732.33 CELLS/uL
- BASOPHIL [3]: 0%
- EOSINOPHIL [3]: 0.33%
- ERYTHROCYTE COUNT [3]: 5.74 x10E6/uL
- HEMATOCRIT [3]: 36.43%
- HEMOGLOBIN [3]: 13.5 G/DL
- LEUKOCYTE COUNT [3]: 11.37 x10E3/uL
- LYMPHOCYTE [3]: 84%
- MEAN CORPUSCULAR HEMOGLOBIN [3]: 23.57 pg
- MEAN CORPUSCULAR HEMOGLOBIN CONCENTRATION [3]: 37.07 G/DL
- MEAN CORPUSCULAR VOLUME [3]: 63.6 fL
- MONOCYTE [3]: 0.33%
- NEUTROPHIL [3]: 15.33%
- NUCLEATED RED BLOOD CELLS [3]: 0 /100WBC
- PLATELET COUNT [3]: 984 x10E3/uL
- ALANINE AMINOTRANSFERASE [3]: 53.67 u/L
- ALBUMIN [3]: 4.33 G/DL
- ALKALINE PHOSPHATASE [3]: 357 u/L
- ASPARTATE AMINOTRANSFERASE [3]: 102 u/L
- BLOOD UREA NITROGEN [3]: 15 mg/dL
- CARBON DIOXIDE [3]: 26 mmol/L
- CHLORIDE [3]: 100.67 MEQ/L
- CHOLESTEROL [3]: 72.33 mg/dL
- CREATINE PHOSPHOKINASE [3]: 938.33 u/L
- CREATININE [3]: 0.19 mg/dL
- GLUCOSE [3]: 156 mg/dL
- LACTATE DEHYDROGENASE [3]: 212 u/L
- LIPASE [3]: 8.67 u/L
- PHOSPHORUS [3]: 12.53 mg/dL
- POTASSIUM [3]: 6.78 MEQ/L
- SODIUM [3]: 143.77 MEQ/L
- TOTAL BILIRUBIN [3]: 0.23 mg/dL
- TOTAL PROTEIN [3]: 6.07 G/DL
